Assay [1] deals with human α1H T-type channels (Homo sapiens, UniProt O95180). As to the kind of experiment: T-type calcium channel block, whole cell patch clamp, α1H. It is filed as cell-based. The conditions noted are these: HEK cells stably expressing human α1H; mainly non-inactivated protocol; values above 10,000 nM represented as 10000. The gist of the method:
(§1)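 Blockade of T-type current was measured in human α1G- or α1H-expressing HEK 293 cells using whole-cell recording with ~5 MΩ pipettes. Test compounds, dissolved in external solution containing 0.1-0.01% DMSO, were applied close to the cell, and block was examined under both non-inactivating and inactivating voltage protocols.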
On the technique in general: The patch-clamp technique gives a direct electrical read-out from membranes.

Assay [2] addresses human α1G T-type channels (Homo sapiens, UniProt O43497). In words: T-type calcium channel block, whole cell patch clamp, α1G. The conditions noted are these: HEK cells stably expressing human α1G; mainly non-inactivated protocol; values above 10,000 nM represented as 10000. It counts as cell-based. Put shortly: as §1

human α1H T-type channels, sequence (O95180 whole entry): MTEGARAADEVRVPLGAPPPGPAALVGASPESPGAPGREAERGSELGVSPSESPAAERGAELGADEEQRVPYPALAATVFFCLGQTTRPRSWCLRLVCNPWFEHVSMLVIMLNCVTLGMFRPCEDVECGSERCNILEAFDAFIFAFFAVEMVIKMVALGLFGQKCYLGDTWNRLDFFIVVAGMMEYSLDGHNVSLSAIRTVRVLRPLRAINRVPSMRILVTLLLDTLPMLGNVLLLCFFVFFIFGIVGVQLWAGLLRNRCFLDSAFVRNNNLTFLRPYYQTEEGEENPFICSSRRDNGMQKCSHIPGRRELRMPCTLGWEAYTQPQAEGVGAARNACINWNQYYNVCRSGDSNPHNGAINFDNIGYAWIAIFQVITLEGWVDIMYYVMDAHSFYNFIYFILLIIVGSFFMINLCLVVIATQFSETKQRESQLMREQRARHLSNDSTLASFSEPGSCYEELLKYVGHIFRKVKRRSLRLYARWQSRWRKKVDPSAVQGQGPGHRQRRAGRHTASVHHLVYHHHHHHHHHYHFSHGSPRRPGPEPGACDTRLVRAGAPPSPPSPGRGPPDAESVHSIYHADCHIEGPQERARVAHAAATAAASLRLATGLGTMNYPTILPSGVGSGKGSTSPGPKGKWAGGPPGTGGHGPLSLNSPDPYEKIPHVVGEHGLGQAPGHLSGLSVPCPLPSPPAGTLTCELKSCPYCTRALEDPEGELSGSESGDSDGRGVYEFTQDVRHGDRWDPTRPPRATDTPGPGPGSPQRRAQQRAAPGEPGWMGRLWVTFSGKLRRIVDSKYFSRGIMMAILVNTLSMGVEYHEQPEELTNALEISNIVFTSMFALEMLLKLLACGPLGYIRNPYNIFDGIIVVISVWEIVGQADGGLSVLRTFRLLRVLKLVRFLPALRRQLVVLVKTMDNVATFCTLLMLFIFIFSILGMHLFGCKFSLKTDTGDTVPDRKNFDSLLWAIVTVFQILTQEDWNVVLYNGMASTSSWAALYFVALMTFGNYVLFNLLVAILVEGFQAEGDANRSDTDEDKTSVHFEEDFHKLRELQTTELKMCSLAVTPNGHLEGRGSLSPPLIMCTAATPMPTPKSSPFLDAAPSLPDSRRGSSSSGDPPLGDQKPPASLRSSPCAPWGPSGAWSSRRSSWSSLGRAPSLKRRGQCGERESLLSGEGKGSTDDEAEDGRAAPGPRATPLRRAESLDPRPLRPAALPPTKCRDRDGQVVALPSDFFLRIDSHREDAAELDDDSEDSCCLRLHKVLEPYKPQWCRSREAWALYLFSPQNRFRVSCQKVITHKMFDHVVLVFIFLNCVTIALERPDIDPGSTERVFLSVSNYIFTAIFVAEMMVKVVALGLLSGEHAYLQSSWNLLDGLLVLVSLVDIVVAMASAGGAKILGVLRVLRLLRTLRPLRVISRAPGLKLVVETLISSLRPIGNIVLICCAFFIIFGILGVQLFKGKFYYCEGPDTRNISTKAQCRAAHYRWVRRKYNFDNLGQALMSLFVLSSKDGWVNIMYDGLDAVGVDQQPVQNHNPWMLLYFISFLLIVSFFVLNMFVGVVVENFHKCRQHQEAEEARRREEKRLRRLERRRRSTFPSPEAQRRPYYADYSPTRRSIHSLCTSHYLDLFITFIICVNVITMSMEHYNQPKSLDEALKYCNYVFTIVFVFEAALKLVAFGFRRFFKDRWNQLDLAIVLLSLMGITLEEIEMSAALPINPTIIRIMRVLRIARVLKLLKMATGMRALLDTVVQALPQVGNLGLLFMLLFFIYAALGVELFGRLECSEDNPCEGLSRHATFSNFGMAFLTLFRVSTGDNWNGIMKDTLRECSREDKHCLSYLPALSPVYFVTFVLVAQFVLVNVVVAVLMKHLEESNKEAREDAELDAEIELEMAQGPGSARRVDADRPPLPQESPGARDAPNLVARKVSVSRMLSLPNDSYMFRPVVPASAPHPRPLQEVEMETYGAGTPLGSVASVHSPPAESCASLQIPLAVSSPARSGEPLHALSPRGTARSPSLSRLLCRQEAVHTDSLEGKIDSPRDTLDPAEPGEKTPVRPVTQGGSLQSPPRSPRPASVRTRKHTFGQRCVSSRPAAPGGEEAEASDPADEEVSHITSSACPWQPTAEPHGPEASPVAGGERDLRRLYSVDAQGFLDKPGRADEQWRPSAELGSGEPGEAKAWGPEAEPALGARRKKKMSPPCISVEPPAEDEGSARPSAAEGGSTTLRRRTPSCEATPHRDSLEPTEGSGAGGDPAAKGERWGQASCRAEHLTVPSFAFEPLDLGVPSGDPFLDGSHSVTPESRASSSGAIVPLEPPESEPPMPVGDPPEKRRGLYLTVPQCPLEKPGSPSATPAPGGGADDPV
human α1G T-type channels, sequence (O43497 whole entry): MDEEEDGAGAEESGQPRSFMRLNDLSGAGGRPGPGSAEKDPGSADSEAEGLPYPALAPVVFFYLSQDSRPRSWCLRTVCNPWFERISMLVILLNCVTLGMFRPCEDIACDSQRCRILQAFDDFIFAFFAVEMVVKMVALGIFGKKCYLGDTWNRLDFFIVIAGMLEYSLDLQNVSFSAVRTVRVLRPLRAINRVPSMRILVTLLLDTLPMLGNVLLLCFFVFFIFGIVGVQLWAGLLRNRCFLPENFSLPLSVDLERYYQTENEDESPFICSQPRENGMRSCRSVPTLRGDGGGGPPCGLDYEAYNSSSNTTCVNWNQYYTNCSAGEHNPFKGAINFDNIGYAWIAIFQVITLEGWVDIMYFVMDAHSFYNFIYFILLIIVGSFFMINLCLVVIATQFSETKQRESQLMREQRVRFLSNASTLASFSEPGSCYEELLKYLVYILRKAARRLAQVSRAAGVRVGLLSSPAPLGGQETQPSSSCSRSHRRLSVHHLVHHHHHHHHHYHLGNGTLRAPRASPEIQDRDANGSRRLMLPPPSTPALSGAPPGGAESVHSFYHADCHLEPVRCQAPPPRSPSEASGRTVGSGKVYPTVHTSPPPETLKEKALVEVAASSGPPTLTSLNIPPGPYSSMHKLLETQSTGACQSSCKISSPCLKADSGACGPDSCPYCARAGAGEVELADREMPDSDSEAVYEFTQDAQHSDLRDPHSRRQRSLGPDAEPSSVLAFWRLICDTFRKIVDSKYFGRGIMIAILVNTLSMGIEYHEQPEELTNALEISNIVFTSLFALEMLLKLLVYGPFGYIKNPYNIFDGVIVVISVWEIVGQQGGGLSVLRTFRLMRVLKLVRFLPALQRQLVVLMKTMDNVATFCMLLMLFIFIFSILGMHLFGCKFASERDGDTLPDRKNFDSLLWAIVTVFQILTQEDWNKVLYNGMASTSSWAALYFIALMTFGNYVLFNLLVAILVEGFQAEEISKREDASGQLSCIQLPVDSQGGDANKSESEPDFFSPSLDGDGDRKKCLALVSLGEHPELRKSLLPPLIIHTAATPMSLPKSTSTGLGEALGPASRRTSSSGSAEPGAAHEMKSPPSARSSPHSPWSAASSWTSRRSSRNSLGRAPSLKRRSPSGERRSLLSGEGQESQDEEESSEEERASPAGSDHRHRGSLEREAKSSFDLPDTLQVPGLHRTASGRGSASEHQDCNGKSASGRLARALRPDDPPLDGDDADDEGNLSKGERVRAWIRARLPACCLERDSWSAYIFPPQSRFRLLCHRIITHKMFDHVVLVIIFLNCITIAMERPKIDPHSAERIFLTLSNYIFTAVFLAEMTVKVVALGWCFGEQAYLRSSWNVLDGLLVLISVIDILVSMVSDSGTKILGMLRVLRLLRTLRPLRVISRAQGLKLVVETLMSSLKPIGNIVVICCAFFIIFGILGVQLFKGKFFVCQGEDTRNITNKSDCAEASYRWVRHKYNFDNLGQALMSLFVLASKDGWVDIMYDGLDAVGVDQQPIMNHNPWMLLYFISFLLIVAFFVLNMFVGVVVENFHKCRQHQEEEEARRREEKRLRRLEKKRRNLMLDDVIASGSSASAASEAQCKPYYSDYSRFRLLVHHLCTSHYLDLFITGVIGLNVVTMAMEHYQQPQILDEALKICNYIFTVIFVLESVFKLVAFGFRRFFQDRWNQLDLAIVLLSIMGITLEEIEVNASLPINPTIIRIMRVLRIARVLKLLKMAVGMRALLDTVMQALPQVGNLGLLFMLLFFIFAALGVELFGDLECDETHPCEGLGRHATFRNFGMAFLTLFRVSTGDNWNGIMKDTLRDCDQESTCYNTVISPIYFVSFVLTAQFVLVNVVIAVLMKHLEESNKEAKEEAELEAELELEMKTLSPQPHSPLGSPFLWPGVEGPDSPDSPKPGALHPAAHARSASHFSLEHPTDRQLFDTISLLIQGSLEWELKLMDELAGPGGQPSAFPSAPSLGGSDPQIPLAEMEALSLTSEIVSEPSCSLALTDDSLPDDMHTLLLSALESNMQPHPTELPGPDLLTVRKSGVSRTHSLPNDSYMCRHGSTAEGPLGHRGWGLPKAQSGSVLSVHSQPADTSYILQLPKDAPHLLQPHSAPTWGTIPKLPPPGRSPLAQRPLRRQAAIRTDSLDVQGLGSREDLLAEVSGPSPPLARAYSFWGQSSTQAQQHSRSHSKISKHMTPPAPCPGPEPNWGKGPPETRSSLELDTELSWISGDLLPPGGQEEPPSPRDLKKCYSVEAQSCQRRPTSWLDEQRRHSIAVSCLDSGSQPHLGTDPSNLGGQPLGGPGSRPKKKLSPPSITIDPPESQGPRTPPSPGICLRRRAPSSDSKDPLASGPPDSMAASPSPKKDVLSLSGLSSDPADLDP

`CC(C)(CNC(=O)c1ccc(C(F)(F)F)cc1S(C)(=O)=O)S(=O)(=O)c1cccc(C(F)(F)F)c1` [Compound 474, N-(2-methyl-2-(3-(trifluoromethyl)phenylsulfonyl)propyl)-2-(methylsulfonyl)-4-(tritluoromethyl)benzamide]: the IC50 – broadly, the concentration that inhibits the measured activity by half – in assay [1] was over 10 µM; in assay [2] it was 0.56 µM.
As to `Cn1nc(C(F)(F)F)cc1C(=O)NCCC(C)(C)S(=O)(=O)c1cc(F)cc(C(F)(F)F)c1` [Compound 535, N-(3-(3-fluoro-5-(trifluoromethyl)phenylsulfonyl)-3-methylbutyl)-l-methyl-3-(trifluoromcthyl)-1H-pyrazole-5-carboxamide], the IC50 is 4.14 µM in assay [1] and 0.7 µM in assay [2].
Turning to `CC(C)(CCNC(=O)c1cc(C(F)(F)F)nc(S(C)(=O)=O)c1)S(=O)(=O)c1cc(F)cc(C(F)(F)F)c1` [Compound 536, N-(3-(3-fluoro-5-(trifluoromethyl)phenylsulfonyl)-3-methylbutyl)-2-(methylsulfonyl)-6-(trifluoromethyl) isonicotinamide], the results for the IC50 in assay [1] and in assay [2] were over 10 µM and 0.64 µM, respectively.
As to `O=C(N[C@H]1CC[C@@](F)(S(=O)(=O)c2cccc(C(F)(F)F)c2)CC1)[C@H]1CCCCN1` [Compound 531, (R)-N-((1S,4S)-4-fluoro-4-(3-(trifluoromethyl)phenylsulfonyl)cyclohexyl) piperidine-2-carboxamide], the IC50 was over 10 µM in assay [1] and 3.56 µM in assay [2].
On to `O=C(N[C@H]1CC[C@@](F)(S(=O)(=O)c2cccc(C(F)(F)F)c2)CC1)[C@@H]1CCCCN1` [Compound 532, (S)-N-((1S,4R)-4-fluoro-4-(3-(trifluoromethyl)phenylsulfonyl)cyclohexyl) piperidine-2-carboxamide], for which the IC50 was over 10 µM in assay [1] and 1.63 µM in assay [2].
For the compound `CC(C)(CNC(=O)c1ccc(C(F)(F)F)cn1)S(=O)(=O)c1cccc(C(F)(F)F)c1` [Compound 476, N-(2-methyl-2-(3-(trifluoromethyl)phenylsulfonyl)propyl)-5-(trifluoromethyl)picolinamide], the IC50 turned out to be 5.62 µM in assay [1] and 0.4 µM in assay [2].
As to `CC(C)(CCNC(=O)c1ncc(C(F)(F)F)cc1S(C)(=O)=O)S(=O)(=O)c1cccc(C(F)(F)F)c1` [Compound 523, N-(3-methyl-3-(3-(trifluoromethyl)phenylsulfonyl)butyl)-3-(methylsulfonyl)-5-(trifluorornethyl)picolinamide], the IC50 was over 10 µM in assay [1] and 0.56 µM in assay [2].
`CS(=O)(=O)c1nc(C(F)(F)F)ccc1C(=O)N[C@H]1CC[C@@](F)(S(=O)(=O)c2cccc(OC(F)(F)F)c2)CC1` [Compound 258, N-((1S,4S)-4-fluoro-4-(3-(trifluoromethoxy)phenylsulfonyl)cyclohexyl)-2-(methylsulfonyl)-6-(trifluoromethyl)nicotinamide]: the IC50 is over 10 µM in assay [1] and 7.34 µM in assay [2].
As for `CC1(C)CCC(NCC(C)(C)S(=O)(=O)c2cccc(C(F)(F)F)c2)CC1` [Compound 518, 4,4-dimethyl-N-(2-methyl-2-(3-(trifluoromethyl)phenylsulfonyl)propyl) cyclohexanamine], the IC50 in assay [1] came to 4.12 µM; in assay [2], 0.6 µM.
For `CC(C)(CNC(=O)c1ccc(F)c(Cl)c1)S(=O)(=O)c1cccc(C(F)(F)F)c1` [Compound 482, 3-chloro-4-fluoro-N-(2-methyl-2-(3-(trifluoromethyl)phenylsulfonyl)propyl) benzamide] the same measures were 3.69 µM and 0.96 µM.
Turning to `CC(C)(CCS(=O)(=O)c1cccc(C(F)(F)F)c1)S(=O)(=O)c1cccc(C(F)(F)F)c1` [Compound 460], the IC50 is over 10 µM in assay [1] and 0.1 µM in assay [2].
For `CC(C)(C(=O)Nc1nc2ccc(Cl)cc2s1)S(=O)(=O)c1cccc(C(F)(F)F)c1` [Compound 449, N-(6-chlorobenzo[d]thiazol-2-yl)-2-methyl-2-(3-(trifluoromethyl)phenylsulfonyl)propanamide] the same measures were 0.55 µM and 0.45 µM.
`CC(C)(C(=O)Nc1ccc(Oc2ccc(C(F)(F)F)nc2)nc1)S(=O)(=O)c1cccc(C(F)(F)F)c1` [Compound 525, 2-methyl-2-(3-(trifluoromethyl)phenylsulfonyl)-N-(6-(6-(trifluoromethyl)pyridin-3-yloxy)pyridin-3-yl) propanamide]: the IC50 in assay [1] was 2.88 µM; in assay [2] it was 0.47 µM.
With `CC(C)(CNC(=O)c1nc2cc(F)ccc2[nH]1)S(=O)(=O)c1cccc(C(F)(F)F)c1` [Compound 478, 5-fluoro-N-(2-methyl-2-(3-(trifluoromethyl)phenylsulfonyl)propyl)-1H-benzo[d]imidazole-2-carboxamide], the figures for the IC50 in assay [1] and in assay [2] were 5.34 µM and 0.27 µM, respectively.
`CC(C)(C(=O)NCCc1ccc(Cl)c(Cl)c1)S(=O)(=O)c1cccc(C(F)(F)F)c1` [Compound 451, N-(3,4-dichlorophenethyl)-2-methyl-2-(3-(trifluoromethyl)phenylsulfonyl)propanamide]: the IC50 in assay [1] amounted to 2.41 µM; in assay [2], 0.26 µM.
For `CC(C)(CCS(=O)(=O)c1ccc(Cl)cc1)S(=O)(=O)c1cccc(C(F)(F)F)c1` [Compound 462, 1-(4-(4-chlorophenylsulfonyl)-2-methylbutan-2-ylsulfonyl)-3-(trifluoromethyl)benzene], the values for the IC50 in assay [1] and in assay [2] were over 10 µM and 0.56 µM, respectively.
Turning to `O=C(N[C@H]1CC[C@H](CS(=O)(=O)c2cccc(C(F)(F)F)c2)CC1)c1cc(F)cc(Cl)c1` [Compound 101, 3-chloro-5-fluoro-N-((1R,4R)-4-((3-(trifluoromethyl)phenylsulfonyl)methyl)cyclohexyl)benzamide], the values for the IC50 in assay [1] and in assay [2] were 3.5 µM and 3.67 µM, respectively.
For the compound `CC(C)(CNS(=O)(=O)c1ccc2c(c1)NC(=O)CO2)S(=O)(=O)c1cccc(C(F)(F)F)c1` [Compound 492, N-(2-methyl-2-(3-(trifluoromethyl)phenylsulfonyl)propyl)-3-oxo-3,4-dihydro-2H-benzo[b][1,4]oxazine-6-sulfonamide], the results for the IC50 in assay [1] and in assay [2] were 9.26 µM and 0.59 µM, respectively.
With `CC(C)(CCNCC(=O)NC1CCCCC1)S(=O)(=O)c1cccc(C(F)(F)F)c1` [Compound 472, N-cyclohexyl-2-(3-methyl-3-(3-(trifluoromethyl)phenylsulfonyl)butylamino) acetamide], the IC50 in assay [1] is 3.47 µM; in assay [2] it was 0.62 µM.
For the compound `CC(C)(C)NC(=O)CNCCC(C)(C)S(=O)(=O)c1cccc(C(F)(F)F)c1` [Compound 471, N-tert-butyl-2-(3-methyl-3-(3-(trifluoromethyl)phenylsulfonyl)butylamino) acetamide], the IC50 in assay [1] is over 10 µM; in assay [2], 0.61 µM.
For `CC(C)(CNS(=O)(=O)c1cccc2nsnc12)S(=O)(=O)c1cccc(C(F)(F)F)c1` [Compound 490] the same measures were over 10 µM and 0.46 µM.
Regarding `CC(C)(C)c1ccc(S(=O)(=O)NCC(C)(C)S(=O)(=O)c2cccc(C(F)(F)F)c2)cc1` [Compound 499, 4-tert-butyl-N-(2-methyl-2-(3-(trifluoromethyl)phenylsulfonyl)propyl) benzenesulfonamide], the IC50 in assay [1] was 1.01 µM; in assay [2] it was 0.09 µM.
As to `COc1cc(F)cc(C(=O)NCCC(C)(C)S(=O)(=O)c2cccc(C(F)(F)F)c2)c1` [Compound 464, 3-fluoro-5-methoxy-N-(3-methyl-3-(3-(trifluoromethyl)phenylsulfonyl)butyl) benzamide], the values for the IC50 in assay [1] and in assay [2] were 2.14 µM and 0.06 µM, respectively.
On to `CC(C)(CNS(=O)(=O)c1cccc(C(F)(F)F)c1)S(=O)(=O)c1cccc(C(F)(F)F)c1` [Compound 495, N-(2-methyl-2-(3-(trifluoromethyl)phenylsulfonyl)propyl)-3-(trifluoromethyl) benzenesulfonamide], for which the IC50 in assay [1] was 2.05 µM; in assay [2] it was 0.19 µM.
Turning to `CC(C)(C)c1cc(C(=O)NCC(C)(C)S(=O)(=O)c2cccc(C(F)(F)F)c2)ccn1` [Compound 484, 2-tert-butyl-N-(2-methyl-2-(3-(trifluoromethyl)phenylsulfonyl)propyl) isonicotinamide], the half-maximal inhibitory concentration (IC50) worked out at 6.69 µM in assay [1] and 0.53 µM in assay [2].
For `O=C(N[C@H]1CC[C@H](CS(=O)(=O)c2cccc(C(F)(F)F)c2)CC1)C1CCOCC1` [Compound 105, N-((1R,4R)-4-((3-(trifluoromethyl)phenylsulfonyl)methyl)cyclohexyl)tetrahydro-2H-pyran-4-carboxamide], the IC50 is 2.48 µM in assay [1] and over 10 µM in assay [2].
For `CC(C)(C(=O)Nc1ccc(Oc2ccc(F)c(Cl)c2)nc1)S(=O)(=O)c1cccc(C(F)(F)F)c1` [Compound 524, N-(6-(3-chloro-4-tluorophenoxy)pyridin-3-yl)-2-methyl-2-(3-(trifluoromethyl)phenylsulfonyl)propanamide] the same measures were 2.07 µM and 0.38 µM.
For the compound `CC(C)(CNS(=O)(=O)c1ccc(OC(F)(F)F)cc1)S(=O)(=O)c1cccc(C(F)(F)F)c1` [Compound 496, N-(2-methyl-2-(3-(trifluoromethyl)phenylsulfonyl)propyl)-4-(trifluoromethoxy) benzenesulfonamide], the figures for the IC50 in assay [1] and in assay [2] were 0.35 µM and 0.17 µM, respectively.
For `CC(C)(CCNC(=O)c1ccc(Oc2ccc(Cl)cc2)cc1)S(=O)(=O)c1cccc(C(F)(F)F)c1` [Compound 506, 4-(4-chlorophenoxy)-N-(3-methyl-3-(3-(trifluoromethyl)phenylsulfonyl)butyl) benzamide] the same measures were 0.64 µM and 0.29 µM.
